{"source": "patent US20030215788A1", "about": "“Cysteine thiol-protected peptides for use in immunoassays” (priority 1989, published 2003)", "assay_type_in_all_cases": "binding, human", "key": {"Antibodies to HIV-2": {"system": "Antibodies to HIV-2", "experiment": "EIA of dilutional series of HIV-2 positive sera", "description": "Alternative methods of testing immunologic cross-reactivity were also used. In one such method L5 Peptides 39 and 39GC were tested by ELISA as previously described in U.S. Pat. No. 4,629,783. Briefly, stock solutions of peptides 39 and 39-GC were prepared in 6M Gu-HCl. Working dilutions of 20 µg/ml and 6 μg/ml respectively were prepared by dilution of stock solution 0 with 0.05M carbonate/bicarbonate buffer, pH 9.5. Wells of microtiter plates were filled with 100 μl of the working dilution of the peptides and allowed to stand overnight at room temperature. Coating solution was removed and 300 μl of blocking solution supra containing 0.5M ethanolamine was added for 1 hr. at room temperature. Blocking solution was removed and the plates were used immediately or allowed to dry and stored for later use.\nPlasma samples were diluted (See Table 1) in sample dilution buffer (above) and 100 μl was added to individual wells. Samples were incubated for 30 min. at 37° C., then removed and the wells were washed six times with 0.15M NaCl, 0.05% Tween 20. One hundred microliters of goat antihuman Ig-horseradish peroxidase conjugate diluted in citrate buffer, pH 7.0, 1% normal goat serum was added to each well for 30 min at 37° C. prior to washing six times as above. The ELISA assay was developed by adding 100 μl/well of substrate solution (80 μg/ml tetramethyl benzidine, 0.0015% hydrogen peroxide in citrate/phosphate buffer, pH 6.0) for 30 min. at room temperature. Reactions were stopped with the addition of 100 μl of H2SO4 per well, and the ratio of the optical density at 450 nm to 630 nm was determined by an automated ELISA reader. The cutoff value for a positive result was set at 0.225 Absorbance Units above the average absorbance obtained for three known negative samples.\nThe immunoreactivity of HIV-2 peptides synthesized with protected cysteine thiol groups was determined. […] EIAs were performed as described above using viral lysates of HIV-1 and HIV-2 and peptides 39GC (HIV-1) and 41-2-3GC. Reactivity was determined for dilutions of two HIV-2 positive sera, F504282, obtained from a patient in New York, and “GOM,” provided by the Institut Pasteur.\nThe assays were EIAs performed generally as described above with varying dilutions of HIV-2 positive serum specimens."}, "[1]": {"system": "antibodies to HTLV-I and/or HTLV-II", "experiment": "membrane concentration immunoassay with peptide 121-1GC1 on suspected HTLV-I/II sera", "conditions": "for Reactivity with deprotected peptide (color grade): 80 μg peptide/5 mg bead/550 μl", "description": "Serum or plasma samples (40 μl) were diluted 1:10 in dilution buffer (10% heat inactivated normal goat serum, 1% dextran sulfate, 0.2% Tween 20, 2.5% nonfat dry milk, 15 ppm Kathon CG, 0.005% antifoam A, in 20 mM sodium citrate buffer, pH 7.4). Diluted specimen was added to the surface of the membrane and allowed to absorb completely. After waiting 2 min. from the time of specimen addition, 1 ml of wash buffer (0.01M Tris-buffered saline, pH 6.0, 0.05M NaCl, 0.005M MgCl2, 0.1% sodium azide, 10 μg/ml nitro blue tetrazolium, 0.5M potassium thiocyanate) was added and allowed to completely absorb through the membrane. About 0.150 ml (3 drops) of goat anti-human Ig-alkaline phosphatase conjugate diluted in 10 mM phosphate buffered saline, pH 7.4, 0.2% goat gamma globulin, 1% bovine serum albumin, 1 mM MgCl2, 0.1 mM ZnCl2 was added to the membrane and allowed to absorb completely. The membrane was washed twice as above (2 ml) and about 0.150 ml (3 drops) of substrate (1M 2-amino-2-methyl-1-propanol, pH 10.3, 5 mg/ml 3-indoxyl phosphate) was added and allowed to absorb completely. After about 5 min. about 1 ml of 0.5M EDTA, pH 7.4, was passed through the membrane to stop the reaction. After the stop solution was completely absorbed the units were read visually or semi-quantitatively by reflectance.\nA wide variety of positive, negative, EIA positive/western blot a typical and immune sensitized specimens have been tested with the preferred peptide 39 analog, peptide 39-GC, as the test antigen.\nResults of assays with peptide 121-1GC1 were compared to those obtained with other HTLV-I/II tests, such as the polymerase chain reaction (PCR), radioimmunoprecipitation (RIP), Western blot (WB), and viral lysate EIAS. The procedure as described in Example II was used for peptide 121-1GC1, except that two drops of samples were used and the conjugate was used at a two-fold higher concentration. The assays were performed with 10 serum samples suspected of containing antibodies to HTLV-I and/or HTLV-II. The PCR assay for HTLV-II was performed generally according to PCR Technology, Principles and Applications for DNA Amplification, ed. H. A. Ehrlich, Stockton Press, N.Y. (1989), incorporated herein by reference.\nIn other experiments, screening of the HTLV-I peptide in a variety of forms against a serum panel of suspected HTLV-I/II positive individuals yielded inconclusive results when compared to results obtained by RIP, Western blot, and commercially available HTLV-I EIA assays."}, "Antibodies to HTLV-I": {"system": "Antibodies to HTLV-I", "experiment": "HTLV-I peptides on latex microparticles tested for reactivity with control sera", "conditions": "Serum Sample 40359, HTLV-I EIA positive control, undiluted; 50 μg peptide/5 mg beads/550 μl"}}, "note": "Non-standard residues stand in square brackets, D forms with d. No end group written: not given here. Cys∗ = not defined here", "data": [{"substance": "Cys-Gly-Gly-Gln-Asp-Gln-Ala-Arg-Leu-Asn-Ser-Trp-Gly-Cys*-Ala-Phe-Arg-Gln-Val-Cys*-NH2 [Peptide 41-2-3GC]", "values": [{"measurement": "Reactivity in EIA", "setting": "Antibodies to HIV-2; HIV-2 positive serum F504282 (A), 1:5", "result": 3.000}, {"measurement": "Reactivity in EIA", "setting": "Antibodies to HIV-2; HIV-2 positive serum F504282 (A), 1:10", "result": 3.000}, {"measurement": "Reactivity in EIA", "setting": "Antibodies to HIV-2; HIV-2 positive serum F504282 (A), 1:20", "result": 3.000}, {"measurement": "Reactivity in EIA", "setting": "Antibodies to HIV-2; HIV-2 positive serum F504282 (A), 1:40", "result": 2.828}, {"measurement": "Reactivity in EIA", "setting": "Antibodies to HIV-2; HIV-2 positive serum F504282 (A), 1:80", "result": 2.107}, {"measurement": "Reactivity in EIA", "setting": "Antibodies to HIV-2; HIV-2 positive serum F504282 (A), 1:160", "result": 1.441}, {"measurement": "Reactivity in EIA", "setting": "Antibodies to HIV-2; HIV-2 positive serum F504282 (A), 1:320", "result": 0.941}, {"measurement": "Reactivity in EIA", "setting": "Antibodies to HIV-2; HIV-2 positive serum F504282 (A), 1:640", "result": 0.588}, {"measurement": "Reactivity in EIA", "setting": "Antibodies to HIV-2; HIV-2 positive serum F504282 (A), 1:1280", "result": 0.302}, {"measurement": "Reactivity in EIA", "setting": "Antibodies to HIV-2; HIV-2 positive serum F504282 (A), 1:2560", "result": 0.180}, {"measurement": "Reactivity in EIA", "setting": "Antibodies to HIV-2; HIV-2 positive serum F504282 (A), Neat", "result": 3.000}, {"measurement": "Reactivity in EIA", "setting": "Antibodies to HIV-2; HIV-2 positive serum GOM (B), 1:2", "result": 3.000}, {"measurement": "Reactivity in EIA", "setting": "Antibodies to HIV-2; HIV-2 positive serum GOM (B), 1:4", "result": 3.000}, {"measurement": "Reactivity in EIA", "setting": "Antibodies to HIV-2; HIV-2 positive serum GOM (B), 1:8", "result": 3.000}, {"measurement": "Reactivity in EIA", "setting": "Antibodies to HIV-2; HIV-2 positive serum GOM (B), 1:16", "result": 3.000}, {"measurement": "Reactivity in EIA", "setting": "Antibodies to HIV-2; HIV-2 positive serum GOM (B), 1:32", "result": 3.000}, {"measurement": "Reactivity in EIA", "setting": "Antibodies to HIV-2; HIV-2 positive serum GOM (B), 1:64", "result": 2.524}, {"measurement": "Reactivity in EIA", "setting": "Antibodies to HIV-2; HIV-2 positive serum GOM (B), 1:128", "result": 2.202}, {"measurement": "Reactivity in EIA", "setting": "Antibodies to HIV-2; HIV-2 positive serum GOM (B), 1:256", "result": 1.452}, {"measurement": "Reactivity in EIA", "setting": "Antibodies to HIV-2; HIV-2 positive serum GOM (B), 1:512", "result": 0.811}, {"measurement": "Reactivity in EIA", "setting": "Antibodies to HIV-2; HIV-2 positive serum GOM (B), 1:1024", "result": 0.571}, {"measurement": "Reactivity in EIA", "setting": "Antibodies to HIV-2; HIV-2 serum PIN, 1:2", "result": 3.000}, {"measurement": "Reactivity in EIA", "setting": "Antibodies to HIV-2; HIV-2 serum PIN, 1:4", "result": 3.000}, {"measurement": "Reactivity in EIA", "setting": "Antibodies to HIV-2; HIV-2 serum PIN, 1:8", "result": 2.596}, {"measurement": "Reactivity in EIA", "setting": "Antibodies to HIV-2; HIV-2 serum PIN, 1:16", "result": 1.940}, {"measurement": "Reactivity in EIA", "setting": "Antibodies to HIV-2; HIV-2 serum PIN, 1:32", "result": 1.209}, {"measurement": "Reactivity in EIA", "setting": "Antibodies to HIV-2; HIV-2 serum PIN, 1:64", "result": 0.582}, {"measurement": "Reactivity in EIA", "setting": "Antibodies to HIV-2; HIV-2 serum PIN, 1:128", "result": 0.368}, {"measurement": "Reactivity in EIA", "setting": "Antibodies to HIV-2; HIV-2 serum PIN, 1:256", "result": 0.186}, {"measurement": "Reactivity in EIA", "setting": "Antibodies to HIV-2; HIV-2 serum S, 1:2", "result": 3.000}, {"measurement": "Reactivity in EIA", "setting": "Antibodies to HIV-2; HIV-2 serum S, 1:4", "result": 3.000}, {"measurement": "Reactivity in EIA", "setting": "Antibodies to HIV-2; HIV-2 serum S, 1:8", "result": 3.000}, {"measurement": "Reactivity in EIA", "setting": "Antibodies to HIV-2; HIV-2 serum S, 1:16", "result": 3.000}, {"measurement": "Reactivity in EIA", "setting": "Antibodies to HIV-2; HIV-2 serum S, 1:32", "result": 2.632}, {"measurement": "Reactivity in EIA", "setting": "Antibodies to HIV-2; HIV-2 serum S, 1:64", "result": 2.155}, {"measurement": "Reactivity in EIA", "setting": "Antibodies to HIV-2; HIV-2 serum S, 1:128", "result": 1.442}, {"measurement": "Reactivity in EIA", "setting": "Antibodies to HIV-2; HIV-2 serum S, 1:256", "result": 0.725}, {"measurement": "Reactivity in EIA", "setting": "Antibodies to HIV-2; HIV-2 serum S, 1:512", "result": 0.516}, {"measurement": "Reactivity in EIA", "setting": "Antibodies to HIV-2; HIV-2 serum SAMB, 1:2", "result": 3.000}, {"measurement": "Reactivity in EIA", "setting": "Antibodies to HIV-2; HIV-2 serum SAMB, 1:4", "result": 3.000}, {"measurement": "Reactivity in EIA", "setting": "Antibodies to HIV-2; HIV-2 serum SAMB, 1:8", "result": 2.854}, {"measurement": "Reactivity in EIA", "setting": "Antibodies to HIV-2; HIV-2 serum SAMB, 1:16", "result": 2.710}, {"measurement": "Reactivity in EIA", "setting": "Antibodies to HIV-2; HIV-2 serum SAMB, 1:32", "result": 2.112}, {"measurement": "Reactivity in EIA", "setting": "Antibodies to HIV-2; HIV-2 serum SAMB, 1:64", "result": 1.400}, {"measurement": "Reactivity in EIA", "setting": "Antibodies to HIV-2; HIV-2 serum SAMB, 1:128", "result": 0.834}, {"measurement": "Reactivity in EIA", "setting": "Antibodies to HIV-2; HIV-2 serum SAMB, 1:256", "result": 0.404}]}, {"substance": "H-CGG-QNRRGLDLLFWEQGGLC*KALQEQC*-NH2 (chain 1 H-CGGQNRRGLDLLFWEQGGLC; chain 2 KALQEQC-NH2; not fully specified; cysteine pairing not given here) [Peptide 121-1GC1]", "values": [{"measurement": "Reactivity with deprotected peptide (color grade)", "setting": "[1]; Sample No. 39266", "result": "trace"}, {"measurement": "Reactivity with deprotected peptide (color grade)", "setting": "[1]; Sample No. 89232", "result": "trace"}, {"measurement": "Reactivity with deprotected peptide (color grade)", "setting": "[1]; Sample No. 89379", "result": "trace"}, {"measurement": "Reactivity with deprotected peptide (color grade)", "setting": "[1]; Sample No. 89430", "result": "trace"}, {"measurement": "Reactivity with deprotected peptide (color grade)", "setting": "[1]; Sample No. 89442", "result": "trace"}, {"measurement": "result on serum panel of suspected HTLV-I/II positive individuals", "setting": "[1]; compared with RIP, Western blot and commercial HTLV-I EIA", "result": "Some samples which were purportedly positive by certain of the tests were negative"}]}, {"substance": "H-QNRRGLDLLFWEQGGLC*KALQEQC*-NH2 (chain 1 H-QNRRGLDLLFWEQGGL[Cys∗]; chain 2 KALQEQ[Cys∗]-NH2; not fully specified; reading uncertain; also: modified residues) [Peptide 121-1G1]", "values": [{"measurement": "Reactivity to Antibodies to HTLV-I (color grade)", "setting": "Antibodies to HTLV-I", "result": "trace"}]}]}
